Assay results published in ChEMBL document CHEMBL4393680, “Design, synthesis and biological evaluation of novel thioquinazolinone-based 2-aminobenzamide derivatives as potent histone deacetylase (HDAC) inhibitors” (Eur J Med Chem, 2019).
Activity calls are given as the source filed them. No cut-off for these calls is given here.

Columns and labels:
A-375 [1] = test: Antiproliferative activity against human A375 cells assessed as reduction in cell growth at 8 uM incubated for 72 hrs by CCK-8 assay relative to control; type: functional; conditions: A-375, 72 h
A-375 [2] = test: Antiproliferative activity against human A375 cells assessed as reduction in cell growth at 2 uM incubated for 72 hrs by CCK-8 assay relative to control; type: functional; conditions: A-375, 72 h
HeLa [3] = test: Antiproliferative activity against human HeLa cells assessed as reduction in cell growth at 8 uM incubated for 72 hrs by CCK-8 assay relative to control; type: functional
HeLa [4] = test: Antiproliferative activity against human HeLa cells assessed as reduction in cell growth at 2 uM incubated for 72 hrs by CCK-8 assay relative to control; type: functional
A549 [5] = test: Antiproliferative activity against human A549 cells assessed as reduction in cell growth at 8 uM incubated for 72 hrs by CCK-8 assay relative to control; type: functional; conditions: A549, 72 h
A549 [6] = test: Antiproliferative activity against human A549 cells assessed as reduction in cell growth at 2 uM incubated for 72 hrs by CCK-8 assay relative to control; type: functional; conditions: A549, 72 h
A-375 [7] = test: Antiproliferative activity against human A375 cells assessed as reduction in cell growth incubated for 72 hrs by CCK-8 assay; type: functional, cell-based; conditions: A-375, 72 h
A549 [8] = test: Antiproliferative activity against human A549 cells assessed as reduction in cell growth incubated for 72 hrs by CCK-8 assay; type: functional, cell-based; conditions: A549, 72 h
HCT-116 = test: Antiproliferative activity against human HCT116 cells assessed as reduction in cell growth incubated for 72 hrs by CCK-8 assay; type: functional, cell-based; conditions: HCT-116, 72 h
Histone deacetylase 1 = Histone deacetylase 1 (Homo sapiens, UniProt Q13547); test: Inhibition of human recombinant His-tagged HDAC1 (482 residues) expressed in baculovirus infected insect cells using FLUOR DE LYS SIRT1 as substrate incubated for 10 mins followed by substrate addition and measured after 30 mins by fluorescence method
Chain of Histone deacetylase 1 (Q13547 whole entry): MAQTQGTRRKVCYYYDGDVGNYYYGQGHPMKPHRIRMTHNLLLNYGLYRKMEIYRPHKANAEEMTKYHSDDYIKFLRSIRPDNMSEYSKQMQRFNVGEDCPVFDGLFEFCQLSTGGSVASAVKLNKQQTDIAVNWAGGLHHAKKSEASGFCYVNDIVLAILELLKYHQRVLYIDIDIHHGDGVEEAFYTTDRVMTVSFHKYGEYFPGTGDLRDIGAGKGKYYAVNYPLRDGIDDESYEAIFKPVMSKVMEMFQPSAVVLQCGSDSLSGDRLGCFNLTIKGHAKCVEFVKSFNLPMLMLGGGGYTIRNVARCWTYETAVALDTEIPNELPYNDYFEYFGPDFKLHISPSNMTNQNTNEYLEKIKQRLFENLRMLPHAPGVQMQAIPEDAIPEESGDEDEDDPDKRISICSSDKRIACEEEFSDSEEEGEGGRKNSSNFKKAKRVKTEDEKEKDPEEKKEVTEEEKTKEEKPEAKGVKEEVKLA

SMMC-7721 [9] = test: Inhibition of colony formation in human SMMC7721 cells incubated for 10 days by crystal violet staining based assay; type: functional, cell-based
SMMC-7721 [10] = test: Cell cycle arrest in human SMMC7721 cells assessed as accumulation at G2/M phase at 0.25 uM incubated for 48 hrs by propidium iodide staining based flow cytometry (Rvb=16.17%); type: functional
SMMC-7721 [11] = test: Cell cycle arrest in human SMMC7721 cells assessed as accumulation at G0/G1 phase at 1 uM incubated for 48 hrs by propidium iodide staining based flow cytometry (Rvb=77%); type: functional
SMMC-7721 [12] = test: Cell cycle arrest in human SMMC7721 cells assessed as accumulation at G2/M phase at 1 uM incubated for 48 hrs by propidium iodide staining based flow cytometry (Rvb=16.17%); type: functional
SMMC-7721 [13] = test: Cell cycle arrest in human SMMC7721 cells assessed as accumulation at G2/M phase at 4 uM incubated for 48 hrs by propidium iodide staining based flow cytometry (Rvb=16.17%); type: functional
SMMC-7721 [14] = test: Induction of apoptosis in human SMMC7721 cells assessed as viable cells at 0.25 uM incubated for 48 hrs by Annexin-V-FITC/propidium iodide staining based flow cytometry (Rvb=93.5%); type: functional; conditions: SMMC-7721, 48 h, read-out: Activity
SMMC-7721 [15] = test: Induction of apoptosis in human SMMC7721 cells assessed as early apoptotic cells at 0.25 uM incubated for 48 hrs by Annexin-V-FITC/propidium iodide staining based flow cytometry (Rvb=2.88%); type: functional
SMMC-7721 [16] = test: Induction of apoptosis in human SMMC7721 cells assessed as late apoptotic cells at 0.25 uM incubated for 48 hrs by Annexin-V-FITC/propidium iodide staining based flow cytometry (Rvb=1.73%); type: functional
SMMC-7721 [17] = test: Induction of apoptosis in human SMMC7721 cells assessed as viable cells at 1 uM incubated for 48 hrs by Annexin-V-FITC/propidium iodide staining based flow cytometry (Rvb=93.5%); type: functional; conditions: SMMC-7721, 48 h, read-out: Activity
SMMC-7721 [18] = test: Induction of apoptosis in human SMMC7721 cells assessed as viable cells at 4 uM incubated for 48 hrs by Annexin-V-FITC/propidium iodide staining based flow cytometry (Rvb=93.5%); type: functional; conditions: SMMC-7721, 48 h, read-out: Activity
NIH3T3 = test: Cytotoxicity against mouse NIH/3T3 cells assessed as reduction in cell viability after 48 hrs by CCK8 assay; type: cell-based; conditions: NIH3T3, 48 h
SMMC-7721 [19] = test: Cell cycle arrest in human SMMC7721 cells assessed as accumulation at S phase incubated for 48 hrs by propidium iodide staining-based flow cytometry; type: functional
Histone deacetylase = test: Inhibition of HDAC in human HeLa cell nuclear extract using fluor-de-lys-green as substrate preincubated for 10 mins followed by substrate addition and measured after 30 mins by fluorescence assay; type: cell-based
A549 [20] = test: Antitumor activity against human A549 cells xenografted in BALB/C mouse assessed as tumor growth inhibition at 25 mg/kg, ip bid for 21 days measured at 3 days interval during compound dosing relative to control; type: functional; conditions: read-out: TGI
[21] = Toxicity in BALB/C mouse xenografted with human A549 cells assessed as reduction in body weight at 25 mg/kg, ip bid for 21 days measured at 3 days interval during compound dosing; type: organism-based; conditions: in vivo
SMMC-7721 [22] = test: Cell cycle arrest in human SMMC7721 cells assessed as accumulation at G2/M phase incubated for 48 hrs by propidium iodide staining-based flow cytometry; type: functional
A549 [23] = test: Antitumor activity against human A549 cells xenografted in BALB/C mouse assessed as reduction in tumor size at 25 mg/kg, ip bid for 21 days measured at 3 days interval during compound dosing by visual analysis; type: functional, organism-based

| SMILES | inhibition at 8 µM (A-375 [1]) | inhibition at 2 µM (A-375 [2]) | inhibition at 8 µM (HeLa [3]) | inhibition at 2 µM (HeLa [4]) | inhibition at 8 µM (A549 [5]) | inhibition at 2 µM (A549 [6]) | IC50 (A-375 [7]) | IC50 (A549 [8]) | IC50 (HCT-116) | IC50 (Histone deacetylase 1) | inhibition (SMMC-7721 [9]) | Activity (SMMC-7721 [10]) | Activity (SMMC-7721 [11]) | Activity (SMMC-7721 [12]) | Activity (SMMC-7721 [13]) | viability at 0.25 µM (SMMC-7721 [14]) | Activity (SMMC-7721 [15]) | Activity (SMMC-7721 [16]) | viability at 1 µM (SMMC-7721 [17]) | viability at 4 µM (SMMC-7721 [18]) | other results |
| --- | --- | --- | --- | --- | --- | --- | --- | --- | --- | --- | --- | --- | --- | --- | --- | --- | --- | --- | --- | --- | --- |
| CCn1c(SCc2ccc(/C=C/C(=O)Nc3ccccc3N)cc2)nc2cc(OC)ccc2c1=O | 89.5% | 55% | 70.8% | 24% | 78.2% | 18.6% | 0.94 µM | 1.76 µM | 1.43 µM | 0.1 µM | Dose-dependent effect | 17.67% | 50.71% | 33.16% | 17.68% | 79.3% | 6.55% | 9.65% | 45.8% | 41.3% | IC50 (NIH3T3): 4.8 µM; Activity (SMMC-7721 [19]): Dose-dependent effect |
| Cn1c(SCc2ccc(C(=O)Nc3ccccc3N)cc2)nc2cc(Br)ccc2c1=O | 72.9% | 34.5% | 72.8% | 32.3% | 66.2% | 37.5% | 2.84 µM | 4.6 µM | 1.22 µM | 0.29 µM | Dose-dependent effect | 18.88% | 56.35% | 25.37% | 19.19% | 79.4% | 6.01% | 9.88% | 49.5% | 26.9% | IC50 (NIH3T3): 4.02 µM; IC50 (Histone deacetylase): 4.94 µM; Activity (SMMC-7721 [19]): Dose-dependent effect |
| COc1ccc2c(=O)n(-c3ccccc3Cl)c(SCc3ccc(C(=O)Nc4ccccc4N)cc3)nc2c1 | 78.7% | 41.8% | 82.7% | 54.4% | 80.6% | 52.5% | 3.51 µM | 6.27 µM | 2.38 µM | 0.38 µM | Dose-dependent effect | 31.29% | 34.49% | 37.07% | 27.3% | 68.3% | 15.9% | 13.1% | 65.6% | 65.8% | IC50 (NIH3T3): 3.39 µM; IC50 (Histone deacetylase): 0.83 µM; Activity (SMMC-7721 [19]): Dose-dependent effect |
| COc1ccc2c(=O)n(C)c(SCc3ccc(C(=O)Nc4ccccc4N)cc3)nc2c1 | 89.4% | 52.2% | 87% | 57.5% | 82.8% | 38% | 0.98 µM | 3.06 µM | 0.75 µM | 0.01 µM | Dose-dependent effect | 11.67% | 58.1% | 22.56% | 31.22% | 66% | 9.27% | 18.9% | 32.3% | 21.7% | IC50 (NIH3T3): 2.53 µM; inhibition in vivo at 25 mg/kg (A549 [20]): 62.5%; Activity [21]: Non-Toxic; IC50 (Histone deacetylase): 0.99 µM; Activity (SMMC-7721 [22]): Dose-dependent effect; Activity (A549 [23]): Active |
